According to patent publication US8642623B2, “Vanilloid receptor ligand compounds, pharmaceutical compositions containing them, a method of producing them and the use thereof to treat pain and various other conditions” (Gruenenthal GmbH, priority 2007, dated 2014):

Columns and labels:
Type in all cases: cell-based
[1] = biological target: T1, vanilloid receptor 1 (VR1/TRPV1) of the rat species (Rattus norvegicus, UniProt O35433); experiment: FLIPR Ca2+ influx assay on rat dorsal root ganglia cells, capsaicin stimulus (Pharmacological method I); conditions: capsaicin 100 nM stimulus, Ki from IC50 by Cheng-Prusoff
T1 construct: The spinal column is removed from decapitated rats; from tissue; host or cells: primary cells from rat dorsal root ganglia (DRG)
T1 sequence (O35433 whole entry): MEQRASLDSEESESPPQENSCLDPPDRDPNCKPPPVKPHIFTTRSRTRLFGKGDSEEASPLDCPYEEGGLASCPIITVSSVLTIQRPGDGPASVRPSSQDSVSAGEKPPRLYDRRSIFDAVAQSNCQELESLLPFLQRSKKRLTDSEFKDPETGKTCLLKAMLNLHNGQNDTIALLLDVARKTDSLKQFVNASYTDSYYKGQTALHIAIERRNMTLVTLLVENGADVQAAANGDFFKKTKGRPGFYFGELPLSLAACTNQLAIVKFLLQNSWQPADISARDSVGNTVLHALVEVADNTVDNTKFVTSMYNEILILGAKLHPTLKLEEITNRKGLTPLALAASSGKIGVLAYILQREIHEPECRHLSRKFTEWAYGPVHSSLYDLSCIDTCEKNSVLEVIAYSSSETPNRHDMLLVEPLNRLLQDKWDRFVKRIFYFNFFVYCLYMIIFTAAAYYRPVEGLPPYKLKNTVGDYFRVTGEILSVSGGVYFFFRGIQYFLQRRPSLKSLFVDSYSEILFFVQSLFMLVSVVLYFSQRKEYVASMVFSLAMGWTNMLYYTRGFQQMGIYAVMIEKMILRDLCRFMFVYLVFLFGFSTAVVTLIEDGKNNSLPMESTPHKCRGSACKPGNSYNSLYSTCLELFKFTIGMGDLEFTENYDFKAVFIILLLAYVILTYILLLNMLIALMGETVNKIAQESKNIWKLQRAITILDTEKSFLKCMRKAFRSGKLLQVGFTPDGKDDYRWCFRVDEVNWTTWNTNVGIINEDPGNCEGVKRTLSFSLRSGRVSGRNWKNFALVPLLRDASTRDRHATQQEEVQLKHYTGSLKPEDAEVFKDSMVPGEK
Method: (§1) The agonistic or antagonistic action of the substances to be investigated on the vanilloid receptor 1 (VR1/TRPV1) of the rat species may be determined with the following assay. According to this assay, the influx of Ca^2+ through the receptor channel is quantified with the assistance of a Ca^2+-sensitive dye (type Fluo-4, Molecular Probes Europe BV, Leiden, Netherlands) in a Fluorescent Imaging Plate Reader (FLIPR, Molecular Devices, Sunnyvale, USA).
Complete medium: 50 mL HAMS F12 Nutrient Mixture (Gibco Invitrogen GmbH, Karlsruhe, Germany) with 10 vol. % FCS (foetal calf serum, Gibco Invitrogen GmbH, Karlsruhe, Germany, heat-inactivated);
Cell culture plate: poly-D-lysine-coated, black 96-hole plates with clear base (96 well black/clear plate, BD Biosciences, Heidelberg, Germany) are additionally coated with laminin (Gibco Invitrogen GmbH, Karlsruhe, Germany), by diluting laminin to a concentration of 100 μg/mL with PBS (Ca—Mg-free PBS, Gibco Invitrogen GmbH, Karlsruhe, Germany). Aliquots with a concentration of 100 μg/mL of laminin are taken and stored at −20° C. The aliquots are diluted with PBS in the ratio of 1:10 to 10 μg/mL of laminin and 50 μL of the solution is pipetted into each well of the cell culture plate. The cell culture plates are incubated for at least two hours at 37° C., the supernatant solution is aspirated and the wells are each washed twice with PBS. The coated cell culture plates are stored with supernatant PBS and this is only removed directly prior to introduction of the cells.
The spinal column is removed from decapitated rats and this is placed directly in cold HBSS buffer (Hank's buffered saline solution, Gibco Invitrogen GmbH, Karlsruhe, Germany), i.e. located in an ice bath, combined with 1 vol. % (percent by volume) of an AA solution (antibiotic/antimycotic solution, PAA, Pasching, Austria). The spinal column is severed lengthwise and removed from the spinal canal together with fasciae. The dorsal root ganglia (DRGs) are then removed and in turn stored in cold HBSS buffer combined with 1 vol. % of an AA solution. The DRGs, from which blood residues and spinal nerves have been completely removed, are in each case transferred into 500 μL cold collagenase type 2 (PAA, Pasching, Austria) and incubated for 35 minutes at 37° C. After the addition of 2.5 vol. % trypsin (PAA, Pasching, Austria) incubation at 37° C. is continued for a further 10 minutes. After complete incubation, the enzyme solution is carefully pipetted off and the remaining DRGs are combined in each case with 500 μL of complete medium.
The DRGs are in each case repeatedly suspended, drawn through cannulas no. 1, no. 12 and no. 16 by means of a syringe and transferred into 50 mL Falcon microtubes, these being filled to 15 mL with complete medium. The content of each Falcon microtube is in each case filtered through a 70 μm Falcon filter insert and centrifuged for 10 minutes at 1200 revolutions and room temperature. The resultant pellet is in each case redissolved in 250 μL of complete medium and the cell count is determined.
The number of cells in the suspension is adjusted to 3×10^5 per mL and a 150 μL portion of this suspension is in each case placed in a well of the cell culture plates which have been coated as described above. The plates are left to stand in the incubator for two to three days at 37° C., 5 vol. % CO2 and 95% relative atmospheric humidity.
The cells are then loaded with 2 μM Fluo-4 and 0.01 vol. % Pluronic F127 (Molecular Probes Europe BV, Leiden, Netherlands) in HBSS buffer (Hank's buffered saline solution, Gibco Invitrogen GmbH, Karlsruhe, Germany) for 30 min at 37° C., washed 3×with HBSS buffer and, after a further 15 minutes' incubation at room temperature, used for Ca^2+ measurement in the FLIPR assay. Ca^2+-dependent fluorescence is here measured before and after the addition of substances (λex=488 nm, λem=540 nm). […]

vanilloid receptor (VR1) = biological target: T2, vanilloid receptor (VR1) (Homo sapiens, UniProt Q8NER1); experiment: FLIPR Ca2+ influx assay with CHO K1 cells transfected with the human VR1 gene, capsaicin stimulus (Pharmacological method II); conditions: capsaicin 100 nM stimulus, Ki from IC50 by Cheng-Prusoff
T2 construct: expressed in transfected cells; host or cells: CHO K1 cells (ECACC), stably transfected
T2 sequence (Q8NER1 whole entry): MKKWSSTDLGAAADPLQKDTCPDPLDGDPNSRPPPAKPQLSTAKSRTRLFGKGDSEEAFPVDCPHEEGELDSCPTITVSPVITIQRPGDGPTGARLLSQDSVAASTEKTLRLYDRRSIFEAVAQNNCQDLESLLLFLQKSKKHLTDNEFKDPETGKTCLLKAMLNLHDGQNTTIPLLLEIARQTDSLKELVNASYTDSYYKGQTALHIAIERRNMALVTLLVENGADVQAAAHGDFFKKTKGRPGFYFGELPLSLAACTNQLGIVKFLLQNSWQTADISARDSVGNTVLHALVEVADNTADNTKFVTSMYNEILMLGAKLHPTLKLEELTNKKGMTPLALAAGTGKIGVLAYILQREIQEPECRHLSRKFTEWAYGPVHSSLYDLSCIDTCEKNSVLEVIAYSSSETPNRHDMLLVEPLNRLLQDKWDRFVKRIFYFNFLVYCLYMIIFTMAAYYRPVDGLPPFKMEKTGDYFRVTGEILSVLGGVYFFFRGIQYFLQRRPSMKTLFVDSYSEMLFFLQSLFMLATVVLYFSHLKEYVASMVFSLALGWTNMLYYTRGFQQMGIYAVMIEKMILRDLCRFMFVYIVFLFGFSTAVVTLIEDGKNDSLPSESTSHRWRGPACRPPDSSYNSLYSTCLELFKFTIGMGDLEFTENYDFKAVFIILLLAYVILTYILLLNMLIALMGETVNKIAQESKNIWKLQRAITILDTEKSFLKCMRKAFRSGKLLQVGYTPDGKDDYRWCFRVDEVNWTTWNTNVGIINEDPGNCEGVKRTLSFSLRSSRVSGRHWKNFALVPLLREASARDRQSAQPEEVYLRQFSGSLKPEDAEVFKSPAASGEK
Method: In addition, compounds according to the invention of the general formulae I, Ia, Ib, I′, I″, I′″ may be preferred which, in a FLIPR assay with CHO K1 cells which have been transfected with the human gene VR1, in a concentration of less than 2000 nM, preferably of less than 1000 nM, particularly preferably of less then 300 nM, very particularly preferably of less than 100 nM, still more preferably of less than 75 nM, further preferably of less than 50 nM, most preferably of less than 10 nM, bring about 50% displacement of capsaicin which is present in a concentration of 100 nM.
In this FLIPR assay, the influx of Ca^2+ is quantified with the assistance of a Ca^2+-sensitive dye (type Fluo-4, Molecular Probes Europe BV, Leiden, Netherlands) in a Fluorescent Imaging Plate Reader (FLIPR, Molecular Devices, Sunnyvale, USA) as described below.
as §1, with “(VR1)” for “1 (VR1/TRPV1) of the rat species”, “may also” for “may”, “the” for “the receptor”
Chinese hamster ovary cells (CHO K1 cells, European Collection of Cell Cultures (ECACC), Great Britain) are stably transfected with the VR1 gene. For functional investigations, these cells are plated out onto poly-D-lysine-coated, black 96-hole plates with a clear base (BD Biosciences, Heidelberg, Germany) at a density of 25,000 cells/hole. The cells are incubated overnight at 37° C. and 5% CO2 in a culture medium (Ham's Nutrient Mixture F12, 10 vol. % FCS (foetal calf serum), 18 μg/mL L-proline). On the following day, the cells are incubated with Fluo-4 (Fluo-4 2 μM, Pluronic F127 0.01 vol. %, Molecular Probes in HBSS (Hank's buffered saline solution), Gibco Invitrogen GmbH, Karlsruhe, Germany) for 30 minutes at 37° C. The plates are then washed 3 times with HBSS buffer and, after a further 15 minutes' incubation at room temperature, used for Ca^2+ measurement in the FLIPR. Ca^2+-dependent fluorescence is here measured before and after the addition of the substances to be investigated (wavelength λex=488 nm, λem=540 nm). Quantification proceeds by measuring the highest fluorescence intensity (FC, fluorescence counts) over time.
The FLIPR protocol consists of 2 additions of substance. The substances to be tested (10 μM) are firstly pipetted onto the cells and Ca^2+ influx is compared with the control (capsaicin 10 μM) (% activation relative to the Ca^2+ signal after addition of 10 μM of capsaicin). After 5 minutes' incubation, 100 nM of capsaicin are added and the influx of Ca^2+ is likewise determined.
The percentage inhibition in comparison with the maximum achievable inhibition with 10 μM capsaicin is calculated.
On the basis of the percentage displacement by different concentrations of the compounds to be tested of the general formula I, IC50 inhibition concentrations which bring about 50% displacement of capsaicin were calculated. Ki values for the test substances were obtained by conversion using the Cheng-Prusoff equation (Cheng, Prusoff; Biochem. Pharmacol. 22, 3099-3108, 1973).

[2] = biological target: vanilloid receptor 1 (VR1/TRPV1 receptor) (Homo sapiens, UniProt Q8NER1); experiment: Human VR1/TRPV1 receptor inhibition after pH stimulus
Chain of vanilloid receptor 1 (VR1/TRPV1 receptor) (Q8NER1 whole entry): as above

`CC(C(=O)NCc1ccc(C(C)(C)C)cc1SC1CCCCC1)c1ccc(N(C)S(C)(=O)=O)c(F)c1` (centres unmarked) [Example 15, N-(4-tert.-butyl-2-(cyclohexylthio)benzyl)-2-(3-fluoro-4-(N-methylmethylsulfonamido)phenyl)propanamide] was tested, and the Ki [1] was 0.0076 µM, the Ki (vanilloid receptor (VR1)) was 0.0183 µM and the inhibition at 1 µM ([2]; compound 1 μM) was 0%. For the same compound, the inhibition at 5 µM ([2]; compound 5 μM) was 6% and the inhibition at 10 µM ([2]; compound 10 μM) was 30%.
